Legend:
RA1 cells [1] = test: Anti-tumor activity in a SCID/RA1 xenograft model of Burkitt's lymphoma (Example 11); assay type: in vivo, SCID mice; conditions: for Mean Survival / Median Survival / Mice alive at the end of the study = day 81 / % Increased life span: 10 mg/kg, IV, Q4D × 6; for % Increased life span: ILS % = [(T-C)/C]×100 of median survival; for survival of mice (in words): SCID mice with RA1 cells
Method: The therapeutic effect of test antibodies was evaluated in an animal model of Burkitt's lymphoma. In the model used, systemic cancer in SCID mice causes hind limb paralysis and infiltrates all major organs.
Forty-eight hours before tumor cell injection, female SCID mice (7-9 weeks old, weighing 17-22 g) were irradiated with a γ-source (1.8 Gy, ^60Co). […] The tumor bearing mice were distributed on D4 into 10 groups of 10 mice each based on body weight using Vivo Manager® software (Biosystemes, Dijon, France). […] Treatment started on D4: mice were administered intravenously a 5 mg/kg or a 10 mg/kg dose of test antibody on days 4, 8, 12, 16, 20 and 24. The vehicle for injection was 10 mM Na-Citrate, 150 mM NaCl, 50 mM Arginine (pH 5.5). Body weights were measured and recorded twice weekly. Mean survival time was calculated for each group as the mean of the day of death, and median survival time was calculated for each group as the median of the day of death. The efficacy of each test antibody was judged by the increased life span value (ILS). ILS % was expressed as follows: ILS %=[(T-C)/C]×100. T was the median of the survival times of animals treated with each test antibody, and C was the median survival time of control animals treated with vehicle.

Human U937 cells = test: Inhibition of SDF-1alpha-induced chemotaxis/cell migration (Example 9); assay type: cell-based; conditions: U-937, SDF-1alpha 3 nM, AMD3100 1 μM
Method: Human U937 cells were grown in RPMI-1640 medium with 10% FCS, then washed twice and incubated in serum-free RPMI-1640 at 37° C. for 3 hours (5% CO2). Starved […] cells were re-suspended in medium for chemotaxis (RPMI-1640 with 0.3% BSA) at 3*10^5 cells per ml and • a) incubated for 30 min at room temperature (not-pre-treated positive control for assay); • b) pre-treated with AMD 3100 at 1 μM concentration (positive control for chemotaxis inhibition) for 30 min at room temperature; or • c) pre-treated with a test IgG at 100 nM concentration for 30 min at room temperature.
Respective not-pre-treated or pre-treated U937 cells were then placed into the top wells of a microchemotaxis chamber (15,000 cells per well).
A polycarbonate filter with a […] pore diameter separated top and bottom chambers.
After incubation for one hour at 37° C. (5% CO2), the cell suspensions were removed from the top wells, and the wells were washed once with PBS. […] The number of migrated cells in each well was determined using a Guava PCA-96 cytometer. […]
Maximal SDF-1 induced migration was calculated as the difference in the number of migrated cells between conditions (al) and (a) in the Table immediately above. The percentage of migration inhibition for a test antibody was then calculated by reference to this maximal migration.

RA1 cells [2] = test: Antibody-dependent cell-mediated cytotoxicity (ADCC), LDH release (Example 10); assay type: cell-based, human; conditions: E:T ratio 20:1
Method: ADCC was measured with RA1 cells as the target cells (T) and using the CytoTox 96® Non-Radioactive Cytotoxicity Assay (Promega Corp., Fitchburg, Wis.)), which assay measures lactate dehydrogenase (LDH) release. A round-bottom 96-well culture plate was set up with the following control and experimental wells (100 microliter final volumes):
a. RA1 cells (for target cell spontaneous LDH release control) b. RA1 cells (for target cell maximum LDH release control) c. Culture medium (RPMI 1640 Medium (1X) without phenol red) used for volume correction control d. Culture medium (for culture medium background control) e. RA1 plus effector cells (E) (for target plus effector cell spontaneous LDH release control) f. Experimental wells with effector and target cells (10^5) with serial dilutions of each test IgG or without test IgG.
The plates were centrifuged at 1600 rpm for 2 minutes and incubated at 37° C. for 4 hours. One hour prior to supernatant harvest, 20 microliters of Lysis Solution (10×) were added to the conditions b) and c). The plates were centrifuged at 1600 rpm for 2 minutes, and 50 microliters of the supernatant from each well of the assay plates were transferred to corresponding wells of a flat-bottom 96-well enzymatic assay plate. Substrate Mix (50 microliters) was added to each well of the latter plate, and the plate (protected from light) was incubated for 30 minutes at room temperature. Finally, 50 microliters of Stop Solution were added to each well, and absorbance (OD values) was measured at 490 nm. Each condition was tested in triplicates.
Preliminary experiments had been conducted in order to determine the optimal E:T ratio. The data shown below were obtained at a 20:1 E:T ratio with 10^5 RA1 target cells. The effector cells used in this study were prepared as follows: human peripheral blood mononuclear cells (PBMCs) obtained from a healthy donor were isolated by means of density gradient centrifugation using Lymphocyte Separation Medium (ref. J15-004, Invitrogen Corp., Carlsbad, Calif.). PBMCs at 2×10^6 per mL were cultured for two days in RPMI 1640 with 10% FCS, penicillin/streptomycin and 100 units per mL of human recombinant IL-2 (obtained from Roussel-Uclaf) in a 37° C. humidified incubator (5% CO2).
ADCC percentages obtained at different concentrations of test IgGs were calculated with the formula % ADCC=(f−e)/(b−a)×100, i.e., % ADCC=(OD of Target+Effector cells +/−Test Mab −OD of Spontaneous Release of Target+Effector cells)/(OD Maximal Release Target cells −OD Spontaneous Release of Target cells)×100.

For “Xolair: isotypic control [reference compound]”, the “Mean Survival” value (RA1 cells [1]) was 29 days, the “Median Survival” value (RA1 cells [1]) was 27 days and the “Mice alive at the end of the study = day 81” value (RA1 cells [1]) was 0/10. For the same compound, the “% Increased life span” value (RA1 cells [1]) was 0% and the “survival of mice (in words)” value (RA1 cells [1]) was “died of disseminated disease with severe weight loss or were terminated because they were moribund within four weeks”.

`c1cc(CN2CCCNCCNCCCNCC2)ccc1CN1CCCNCCNCCCNCC1` [AMD3100] gave an inhibition at 1 µM (Human U937 cells) of 98%.

With “Rituximab: CD20 antibody Mabthera, used as positive control [reference compound]” the ADCC percentage (RA1 cells [2]; 0.0001 μg/mL) was 3%, the ADCC percentage (RA1 cells [2]; 0.001 μg/mL) was 8% and the ADCC percentage (RA1 cells [2]; 0.01 μg/mL) was 27%. The ADCC percentage (RA1 cells [2]; 0.1 μg/mL) was 46%, the ADCC percentage (RA1 cells [2]; 1 μg/mL) was 60% and the “Mean Survival” value (RA1 cells [1]) was 63 days. The “Median Survival” value (RA1 cells [1]) was 62 days, the “Mice alive at the end of the study = day 81” value (RA1 cells [1]) was 0/10 and the “% Increased life span” value (RA1 cells [1]) was 130%. The “survival of mice (in words)” value (RA1 cells [1]) was “lived significantly longer than control mice”.
